Experiments:
[1] = system: SAGPY (Arrowhead (Pygmaea)); assay: Preemergence weed control under flooded paddy conditions; assay type: in vivo, Sagittaria pygmaea; conditions: rated 3-4 weeks after treatment
Method in brief: (§1)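 Seeds or propagules sown in top 0.5 cm of silt loam soil, flooded 1.5 to 3 cm above surface throughout. Compound in 50/50 v/v aqueous/acetone pipetted into flood water at about 0.0313 to 0.500 kg/ha. Visual 0-9 rating versus control after three to four weeks in greenhouse.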

[2] = system: CHEAL (Lambsquarters, Common); assay: Preemergence herbicidal evaluation; assay type: in vivo, Chenopodium album; conditions: rated 4-5 weeks after treatment
Method in brief: (§2)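 Herbicidal effect scored visually, 0-9, at 4 to 5 weeks against a control; compound applied preemergence by aqueous acetone spray to seeded soil at about 0.0156 to 0.500 kg/ha.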

[3] = system: AMBEL (Ragweed, Common); assay: Preemergence herbicidal evaluation; assay type: in vivo, Ambrosia artemisifolia; conditions: rated 4-5 weeks after treatment
Method in brief: as §2

[4] = system: TRZAWR (Wheat, Winter, cv Riband); assay: Postemergence herbicidal evaluation; assay type: in vivo, Triticum aestivum; conditions: postemergence
Method in brief: (§3)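 Two-week seedlings sprayed postemergence at 40 psi; formulation: 1:1 acetone/water, 0.5% TWEEN 20; application ≈0.0156–0.500 kg/ha. Greenhouse grow-out, then 0–9 visual scoring at 4–5 weeks.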

[5] = system: CASOB (Sicklepod); assay: Preemergence herbicidal evaluation; assay type: in vivo, Cassia obtusifolia; conditions: rated 4-5 weeks after treatment
Method in brief: as §2

[6] = system: GLXMAW (Soybean, Williams); assay: Postemergence herbicidal evaluation; assay type: in vivo, Glycine max, (L.) Merr. cv Williams; conditions: postemergence
Method in brief: as §3

[7] = system: ORYSAT (Rice, Tebonnet); assay: Preemergence herbicidal evaluation; assay type: in vivo, Oryza sativa, (L.) Tebonnet; conditions: rated 4-5 weeks after treatment
Method in brief: as §2

[8] = system: ABUTH (Velvetleaf); assay: Preemergence herbicidal evaluation; assay type: in vivo, Abutilon theophrasti; conditions: rated 4-5 weeks after treatment
Method in brief: as §2

[9] = system: IPOHE (Morningglory, Ivyleaf); assay: Postemergence herbicidal evaluation; assay type: in vivo, Ipomoea hederacea; conditions: postemergence
Method in brief: as §3

[10] = system: ECHCG (Barnyardgrass); assay: Postemergence herbicidal evaluation; assay type: in vivo, Echinochloa crus-galli; conditions: postemergence
Method in brief: as §3

[11] = system: CASOB (Sicklepod); assay: Postemergence herbicidal evaluation; assay type: in vivo, Cassia obtusifolia; conditions: postemergence
Method in brief: as §3

[12] = system: MOOVA (Monochoria); assay: Preemergence weed control under flooded paddy conditions; assay type: in vivo, Monochoria vaginalis; conditions: rated 3-4 weeks after treatment
Method in brief: as §1

[13] = system: AMBEL (Ragweed, Common); assay: Postemergence herbicidal evaluation; assay type: in vivo, Ambrosia artemisifolia; conditions: postemergence
Method in brief: as §3

[14] = system: GLXMAW (Soybean, Williams); assay: Preemergence herbicidal evaluation; assay type: in vivo, Glycine max, (L.) Merr. cv Williams; conditions: rated 4-5 weeks after treatment
Method in brief: as §2

[15] = system: IPOHE (Morningglory, Ivyleaf); assay: Preemergence herbicidal evaluation; assay type: in vivo, Ipomoea hederacea; conditions: rated 4-5 weeks after treatment
Method in brief: as §2

[16] = system: CHEAL (Lambsquarters, Common); assay: Postemergence herbicidal evaluation; assay type: in vivo, Chenopodium album; conditions: postemergence
Method in brief: as §3

COC(=O)COC(=O)CN1C(=O)CSC1=Nc1cc(-n2c(=O)cc(C(F)(F)F)n(C)c2=O)c(F)cc1Cl [Compound 108, 2-{{2-Chloro-5-[3,6-dihydro-3-methyl-2,6-dioxo-4-(trifluoromethyl)-1(2H)-pyrimidinyl]-4-fluorophenyl}imino}-4-oxo-3-thiazolidineacetic acid, ester with methyl glycolate]
0.0: SAGPY herbicidal effect rating ([1]; 0.0313 kg/ha) | SAGPY herbicidal effect rating ([1]; 0.0625 kg/ha) | Preemergence herbicidal rating CHEAL ([2]; rate 0.0313 kg/ha) | Preemergence herbicidal rating AMBEL ([3]; rate 0.0156 kg/ha) | Preemergence herbicidal rating AMBEL ([3]; rate 0.0313 kg/ha) | Preemergence herbicidal rating AMBEL ([3]; rate 0.0625 kg/ha) | Preemergence herbicidal rating AMBEL ([3]; rate 0.1250 kg/ha) | Preemergence herbicidal rating CASOB ([5]; rate 0.0156 kg/ha) | Preemergence herbicidal rating CASOB ([5]; rate 0.0313 kg/ha) | Preemergence herbicidal rating CASOB ([5]; rate 0.0625 kg/ha) | Preemergence herbicidal rating CASOB ([5]; rate 0.1250 kg/ha) | Preemergence herbicidal rating ORYSAT ([7]; rate 0.0156 kg/ha) | Preemergence herbicidal rating ORYSAT ([7]; rate 0.0313 kg/ha) | Preemergence herbicidal rating ORYSAT ([7]; rate 0.0625 kg/ha) | Preemergence herbicidal rating ABUTH ([8]; rate 0.0156 kg/ha) | Preemergence herbicidal rating ABUTH ([8]; rate 0.0313 kg/ha) | Preemergence herbicidal rating GLXMAW ([14]; rate 0.0156 kg/ha) | Preemergence herbicidal rating IPOHE ([15]; rate 0.0156 kg/ha) | Preemergence herbicidal rating IPOHE ([15]; rate 0.0313 kg/ha) | Preemergence herbicidal rating IPOHE ([15]; rate 0.0625 kg/ha)
3.0: SAGPY herbicidal effect rating ([1]; 0.1250 kg/ha) | Herbicidal rating TRZAWR ([4]; rate 0.0158 kg/ha) | Herbicidal rating ECHCG ([10]; rate 0.0158 kg/ha)
7.0: Herbicidal rating CHEAL ([16]; rate 0.0315 kg/ha)
5.5: Herbicidal rating GLXMAW ([6]; rate 0.0315 kg/ha)
5.0: Herbicidal rating GLXMAW ([6]; rate 0.0158 kg/ha) | Preemergence herbicidal rating ORYSAT ([7]; rate 0.2500 kg/ha) | Herbicidal rating AMBEL ([13]; rate 0.0315 kg/ha) | Herbicidal rating AMBEL ([13]; rate 0.0630 kg/ha)
9.0: Preemergence herbicidal rating CHEAL ([2]; rate 0.0625 kg/ha) | Preemergence herbicidal rating CHEAL ([2]; rate 0.1250 kg/ha) | Preemergence herbicidal rating CHEAL ([2]; rate 0.2500 kg/ha) | Preemergence herbicidal rating CASOB ([5]; rate 0.2500 kg/ha) | Preemergence herbicidal rating ABUTH ([8]; rate 0.2500 kg/ha) | Herbicidal rating IPOHE ([9]; rate 0.0158 kg/ha) | Herbicidal rating IPOHE ([9]; rate 0.0315 kg/ha) | Herbicidal rating IPOHE ([9]; rate 0.0630 kg/ha) | MOOVA herbicidal effect rating ([12]; 0.0313 kg/ha) | MOOVA herbicidal effect rating ([12]; 0.0625 kg/ha) | MOOVA herbicidal effect rating ([12]; 0.1250 kg/ha) | MOOVA herbicidal effect rating ([12]; 0.2500 kg/ha) | Preemergence herbicidal rating IPOHE ([15]; rate 0.2500 kg/ha) | Herbicidal rating CHEAL ([16]; rate 0.0630 kg/ha)
6.0: SAGPY herbicidal effect rating ([1]; 0.2500 kg/ha) | Herbicidal rating GLXMAW ([6]; rate 0.0630 kg/ha)
4.5: Herbicidal rating TRZAWR ([4]; rate 0.0630 kg/ha)
1.0: Preemergence herbicidal rating AMBEL ([3]; rate 0.2500 kg/ha) | Preemergence herbicidal rating ORYSAT ([7]; rate 0.1250 kg/ha) | Herbicidal rating CASOB ([11]; rate 0.0158 kg/ha) | Herbicidal rating CASOB ([11]; rate 0.0315 kg/ha) | Herbicidal rating CASOB ([11]; rate 0.0630 kg/ha)
4.0: Preemergence herbicidal rating ABUTH ([8]; rate 0.0625 kg/ha) | Herbicidal rating ECHCG ([10]; rate 0.0315 kg/ha) | Herbicidal rating ECHCG ([10]; rate 0.0630 kg/ha) | Herbicidal rating AMBEL ([13]; rate 0.0158 kg/ha) | Preemergence herbicidal rating IPOHE ([15]; rate 0.1250 kg/ha) | Herbicidal rating CHEAL ([16]; rate 0.0158 kg/ha)
3.5: Herbicidal rating TRZAWR ([4]; rate 0.0315 kg/ha)
8.0: Preemergence herbicidal rating ABUTH ([8]; rate 0.1250 kg/ha)
2.0: Preemergence herbicidal rating GLXMAW ([14]; rate 0.0625 kg/ha) | Preemergence herbicidal rating GLXMAW ([14]; rate 0.1250 kg/ha) | Preemergence herbicidal rating GLXMAW ([14]; rate 0.2500 kg/ha)

CC(C)OC(=O)CN1C(=O)CSC1=Nc1cc(-n2c(=O)cc(C(F)(F)F)n(C)c2=O)c(F)cc1Cl [Compound 110]
4.0: Herbicidal rating TRZAWR ([4]; rate 0.0630 kg/ha) | Herbicidal rating ECHCG ([10]; rate 0.0630 kg/ha) | Herbicidal rating AMBEL ([13]; rate 0.0315 kg/ha) | Preemergence herbicidal rating GLXMAW ([14]; rate 0.1250 kg/ha)
7.0: SAGPY herbicidal effect rating ([1]; 0.0625 kg/ha) | SAGPY herbicidal effect rating ([1]; 0.1250 kg/ha) | Preemergence herbicidal rating GLXMAW ([14]; rate 0.5000 kg/ha)
0.0: Preemergence herbicidal rating CASOB ([5]; rate 0.0156 kg/ha) | Preemergence herbicidal rating CASOB ([5]; rate 0.0313 kg/ha) | Preemergence herbicidal rating CASOB ([5]; rate 0.0625 kg/ha) | Preemergence herbicidal rating ORYSAT ([7]; rate 0.0156 kg/ha)
3.5: Preemergence herbicidal rating AMBEL ([3]; rate 0.0625 kg/ha) | Herbicidal rating TRZAWR ([4]; rate 0.0315 kg/ha) | Preemergence herbicidal rating IPOHE ([15]; rate 0.0156 kg/ha)
1.5: Preemergence herbicidal rating ORYSAT ([7]; rate 0.1250 kg/ha)
6.5: Preemergence herbicidal rating AMBEL ([3]; rate 0.2500 kg/ha) | Herbicidal rating GLXMAW ([6]; rate 0.0315 kg/ha) | Herbicidal rating GLXMAW ([6]; rate 0.0630 kg/ha)
5.0: Preemergence herbicidal rating CASOB ([5]; rate 0.2500 kg/ha) | Herbicidal rating GLXMAW ([6]; rate 0.0158 kg/ha) | Preemergence herbicidal rating ORYSAT ([7]; rate 0.2500 kg/ha) | Herbicidal rating ECHCG ([10]; rate 0.0315 kg/ha) | Herbicidal rating AMBEL ([13]; rate 0.0158 kg/ha)
3.0: Preemergence herbicidal rating ORYSAT ([7]; rate 0.5000 kg/ha)
8.0: SAGPY herbicidal effect rating ([1]; 0.2500 kg/ha) | Preemergence herbicidal rating CHEAL ([2]; rate 0.0156 kg/ha)
9.0: Preemergence herbicidal rating CHEAL ([2]; rate 0.0313 kg/ha) | Preemergence herbicidal rating CHEAL ([2]; rate 0.0625 kg/ha) | Preemergence herbicidal rating CHEAL ([2]; rate 0.1250 kg/ha) | Preemergence herbicidal rating CHEAL ([2]; rate 0.2500 kg/ha) | Preemergence herbicidal rating CHEAL ([2]; rate 0.5000 kg/ha) | Preemergence herbicidal rating AMBEL ([3]; rate 0.5000 kg/ha) | Preemergence herbicidal rating CASOB ([5]; rate 0.5000 kg/ha) | Preemergence herbicidal rating ABUTH ([8]; rate 0.0313 kg/ha) | Preemergence herbicidal rating ABUTH ([8]; rate 0.0625 kg/ha) | Preemergence herbicidal rating ABUTH ([8]; rate 0.1250 kg/ha) | Preemergence herbicidal rating ABUTH ([8]; rate 0.2500 kg/ha) | Preemergence herbicidal rating ABUTH ([8]; rate 0.5000 kg/ha) | Herbicidal rating IPOHE ([9]; rate 0.0158 kg/ha) | Herbicidal rating IPOHE ([9]; rate 0.0315 kg/ha) | Herbicidal rating IPOHE ([9]; rate 0.0630 kg/ha) | MOOVA herbicidal effect rating ([12]; 0.0313 kg/ha) | MOOVA herbicidal effect rating ([12]; 0.0625 kg/ha) | MOOVA herbicidal effect rating ([12]; 0.1250 kg/ha) | MOOVA herbicidal effect rating ([12]; 0.2500 kg/ha) | Herbicidal rating AMBEL ([13]; rate 0.0630 kg/ha) | Preemergence herbicidal rating IPOHE ([15]; rate 0.1250 kg/ha) | Preemergence herbicidal rating IPOHE ([15]; rate 0.2500 kg/ha) | Preemergence herbicidal rating IPOHE ([15]; rate 0.5000 kg/ha) | Herbicidal rating CHEAL ([16]; rate 0.0158 kg/ha) | Herbicidal rating CHEAL ([16]; rate 0.0315 kg/ha) | Herbicidal rating CHEAL ([16]; rate 0.0630 kg/ha)
0.5: Preemergence herbicidal rating ORYSAT ([7]; rate 0.0313 kg/ha) | Preemergence herbicidal rating ORYSAT ([7]; rate 0.0625 kg/ha) | Preemergence herbicidal rating GLXMAW ([14]; rate 0.0156 kg/ha) | Preemergence herbicidal rating GLXMAW ([14]; rate 0.0313 kg/ha)
6.0: SAGPY herbicidal effect rating ([1]; 0.0313 kg/ha)
4.5: Preemergence herbicidal rating AMBEL ([3]; rate 0.1250 kg/ha) | Preemergence herbicidal rating IPOHE ([15]; rate 0.0313 kg/ha)
2.0: Preemergence herbicidal rating CASOB ([5]; rate 0.1250 kg/ha)
5.5: Preemergence herbicidal rating ABUTH ([8]; rate 0.0156 kg/ha) | Preemergence herbicidal rating GLXMAW ([14]; rate 0.2500 kg/ha) | Preemergence herbicidal rating IPOHE ([15]; rate 0.0625 kg/ha)
2.5: Preemergence herbicidal rating AMBEL ([3]; rate 0.0313 kg/ha) | Herbicidal rating TRZAWR ([4]; rate 0.0158 kg/ha) | Preemergence herbicidal rating GLXMAW ([14]; rate 0.0625 kg/ha)
1.0: Preemergence herbicidal rating AMBEL ([3]; rate 0.0156 kg/ha) | Herbicidal rating ECHCG ([10]; rate 0.0158 kg/ha) | Herbicidal rating CASOB ([11]; rate 0.0158 kg/ha) | Herbicidal rating CASOB ([11]; rate 0.0315 kg/ha) | Herbicidal rating CASOB ([11]; rate 0.0630 kg/ha)

Reference: patent publication US20020137929A1, “1 - (3-heterocyclylphenyl) isothiourea, -isourea, -guanidine and -amidine herbicidal agents” (Intellectual Property Department, BASF Aktiengesellschaft, priority 1998, published 2002)
